In US20240374738A1, “BIFUNCTIONAL COMPOUND CAPABLE OF DEGRADING RECEPTOR TYROSINE KINASE AND APPLICATION THEREOF” (TAIBIDI PHARMACEUTICAL TECHNOLOGY (SHIJIAZHUANG) CO., LTD., priority 2023, published 2024):

How the values were obtained:
Format in all cases: cell-based
[1] = tested on: MKN45; experiment: Growth inhibition of gastric cancer cells MKN45 (CCK-8); conditions: Homo sapiens, MKN-45, half inhibitory concentration, 72 hours
Method: (§1) Inoculate gastric cancer cells (SNU5 or MKN45) into a 96 well plate at a concentration of […], with 100 μl added to each well. Incubate for 30 minutes. Observe the cell status under a microscope. Prepare compounds, weigh a certain amount of the series compounds or reference drug cabozantinib of this patent, first prepare a high concentration mother liquor with pure DMSO, and use gradient dilution method to prepare a concentration of 200 μM, 60 μM, 20 μM, 6 μM, 2 μM, 600 nM, 200 nM, 0 nM drug solution, shake to make it fully mixed. The control group was prepared with cabozantinib using the same solvent and method.
(§2) After preparation, add 1 μl of drug solution to each well of the 96 well plate, and then add 100 μl of culture medium. Repeat each dose three times. Gently shake to allow the cells and medication to come into full contact and incubate in the incubator for 72 hours. 72 hours later, remove and color with CCK-8 reagent kit. Add 20 μl of CCK-8 reagent to each well, gently shake well, and incubate in the incubator for 1 hour. After 1 hour, remove and measure the absorbance of each well using an enzyme-linked immunosorbent assay (ELISA) reader at a wavelength of 450 nm.
(§3) According to the formula: Cell growth inhibition rate=[1−(absorbance of experimental group absorbance of culture medium control group)/(absorbance of blank control group−absorbance of culture medium control group)]×100%. It can be concluded that the compound has the ability to inhibit the growth of gastric cancer cells at the current dose and time.
(§4) Draw a graph based on the gradient of concentration and use GraphPad Prism 9 software (GraphPad Software, La Jolla, CA) to calculate the maximum inhibitory concentration (IC50) at 50%.
(§5) Referring to steps 1 and 2 of this embodiment, the inhibitory effect of the compound of the present invention on the growth of cancer cells and the degradation effect of target proteins were measured, and the following results were obtained (see Table 2 below).
(§6) The growth inhibitory effects of the compound of the present invention on tumor cell lines MKN45 and SNU5 were measured. The activity is expressed as half inhibitory concentration (C50). The results are shown in Table 2 below; When the half inhibitory concentration is less than or equal to 100 nM, the compound activity is labeled as “++++”; When the half inhibitory concentration is greater than 100 nM and less than 500 nM, the compound activity is labeled as […] and less than 1000 nM, the compound activity is labeled as “++”; When the half inhibitory concentration is greater than 1000 nM and less than 3000 nM, the compound activity is marked as “+”; When the half inhibitory concentration is greater than 3000 nM, the compound activity is marked as […]

[2] = biological target: DDR1 (Homo sapiens, UniProt Q08345); experiment: Degradation of DDR1 in tumor cell MKN45 (Western blot); parameters: The degradation activity of the compounds against DDR1 in the MKN45 cell line; endogenous in cells; host or cells: MKN45; conditions: MKN-45, maximum degradation percentage, MKN45 cells, 24 hours
Method: Western blot experiment: Take gastric cancer cells (MKN45) and inoculate them into a 6-well plate at a concentration of […], adding 2 ml to each well and incubating for 24 hours.
The next day, observe the cells under a microscope to confirm their status. Prepare compounds, weigh a certain amount of the series compounds or reference drug cabozantinib from this patent, first prepare a high concentration mother liquor with pure DMSO, and use gradient dilution method to prepare compound concentrations of 2 mM, 200 μM, 100 μM, 20 μM, 2 μM, 200 nM, and 0 nM. The final concentration of DMSO is 0.5%. Shake to thoroughly mix. Add 10 μl of solution to each well. After incubation for 24 hours, remove the cells and use a pipette to aspirate the suspended cells into a 1.5 ml centrifuge tube. Centrifuge at 5000 rpm for 10 minutes to precipitate the cells. Carefully remove the cell precipitate from the culture medium, add 1 ml of PBS and shake slightly. After repeated cleaning for 3 times, dry the residue. Add 150 μl of RIPA lysate pre mixed with 1% PMSF, blow to allow the lysate to fully contact the cells, and incubate on ice for 10 minutes. Centrifuge at 12000 rpm for 10 minutes, extract the supernatant, use the BCA protein quantification kit to determine and homogenize the sample loading.
Mix BCA-A in a 50:1 ratio Prepare working solution with B solution, dilute the sample by 5 times, then pipette 20 μl onto a 96 well ELISA plate. Add 200 μl of pre mixed BCA working solution and incubate at 37° C. for 20 minutes. Measure the A562 nm absorbance value using an ELISA reader and substitute it into the protein standard curve formula to obtain the sample concentration. After calculating the required volume for loading […] of sample, divide the sample into 1.5 ml centrifuge tubes. Add 10 μl of sample buffer to each tube and mix well. Heat in a 95° C. metal bath for 5 minutes to denature the protein.
Take 4-20% gradient pre adhesive and fix it on the adhesive rack. Add electrophoresis solution to the slot and remove the comb, Marker and protein samples were loaded, and after 30 minutes of electrophoresis at 80V, the voltage was adjusted to 120V for electrophoresis, The marker band stops electrophoresis at the forefront of the gel. Take out the adhesive block and cut it to the appropriate size, The PVDF membrane was cut and activated in methanol, and after activation, the PVDF membrane was equilibrated in a membrane transfer equilibrium solution for 1 minute. Using sponge pads The sequence of PVDF film, adhesive, and sponge pad is placed in the splint and placed in the eBlot equipment for rapid wet rotation. Remove the membrane and seal it in 5% skim milk powder dissolved in 1×TBST for 1 hour. Cut the membrane according to the molecular weight of the target protein and internal reference protein, and place it in primary antibody diluted with 1×TBST. Shake overnight at 4° C.
The next day, transfer the band to 1×TBST for 3 washes, then add a specific dilution of the secondary antibody and shake it for 1.5 hours. Transfer the band again to 1×TBST for 3 washes, prepare ECL color solution, place the membrane in the imaging system, cover the surface with ECL color solution, and take photos of the membrane using the imaging system.
Using the SHST analysis system to analyze the results, measure the grayscale values of each band of the target protein and internal reference protein. Normalize the grayscale values of the target protein/corresponding lane GAPDH grayscale values, and perform quantitative analysis according to the protein amount=experimental group grayscale value/blank control group grayscale value.
The activity of the compound of the present invention in degrading DDR in tumor cell line MKN45 was measured. […]

[3] = tested on: SNU5; experiment: Growth inhibition of gastric cancer cells SNU5 (CCK-8); conditions: Homo sapiens, SNU-5, half inhibitory concentration, 72 hours
Method: as §1, §2, §3, §4, §5, §6

Chain of DDR1 (Q08345 19-913): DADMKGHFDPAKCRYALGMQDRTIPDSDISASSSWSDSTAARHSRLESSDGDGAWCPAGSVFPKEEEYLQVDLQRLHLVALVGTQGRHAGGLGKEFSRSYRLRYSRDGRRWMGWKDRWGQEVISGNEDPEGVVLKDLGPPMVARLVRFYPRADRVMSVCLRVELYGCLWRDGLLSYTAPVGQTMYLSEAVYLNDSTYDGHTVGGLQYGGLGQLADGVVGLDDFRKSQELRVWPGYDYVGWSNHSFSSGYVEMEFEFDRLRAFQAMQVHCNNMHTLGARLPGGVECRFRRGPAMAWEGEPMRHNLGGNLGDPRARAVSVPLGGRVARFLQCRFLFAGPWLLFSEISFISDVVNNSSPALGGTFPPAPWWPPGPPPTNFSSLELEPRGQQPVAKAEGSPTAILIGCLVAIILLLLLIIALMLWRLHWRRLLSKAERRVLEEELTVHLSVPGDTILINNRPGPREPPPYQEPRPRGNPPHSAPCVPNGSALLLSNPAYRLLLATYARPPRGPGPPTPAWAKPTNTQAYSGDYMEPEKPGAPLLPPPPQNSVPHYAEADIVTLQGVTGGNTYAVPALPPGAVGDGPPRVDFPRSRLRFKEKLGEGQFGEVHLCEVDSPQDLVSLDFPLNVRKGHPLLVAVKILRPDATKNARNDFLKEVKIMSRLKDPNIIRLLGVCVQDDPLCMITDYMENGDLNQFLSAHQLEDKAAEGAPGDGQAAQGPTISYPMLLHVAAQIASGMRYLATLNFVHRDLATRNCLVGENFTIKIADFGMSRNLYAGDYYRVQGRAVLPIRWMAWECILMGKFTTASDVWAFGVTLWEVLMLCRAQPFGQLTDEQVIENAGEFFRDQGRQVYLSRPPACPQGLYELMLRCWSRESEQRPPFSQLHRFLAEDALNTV

Row | Structure (SMILES) | IC50 [1] | Dmax [2] | IC50 [3]
1 | COc1cc2c(Oc3ccc(NC(=O)C4(C(=O)Nc5ccc(F)cc5)CC4)cc3)ccnc2cc1COCCN1CCC(OCCC(=O)N[C@H](C(=O)N2C[C@H](O)C[C@H]2C(=O)NCc2ccc(-c3scnc3C)cc2)C(C)(C)C)CC1 [TPD5305] | 100 to 500 nM | 65 to 75% | 100 to 500 nM
2 | COc1cc2c(Oc3ccc(NC(=O)C4(C(=O)Nc5ccc(F)cc5)CC4)cc3)ccnc2cc1COCCN1CCC(CCNc2cccc3c2C(=O)N(C2CCC(=O)NC2=O)C3=O)CC1 (stereo not drawn) [TPD5313] | 100 to 500 nM | 65 to 75% | 100 to 500 nM
3 | COc1cc2c(Oc3ccc(NC(=O)C4(C(=O)Nc5ccc(F)cc5)CC4)cc3)ccnc2cc1COCCN1CCC(OCCCNc2ccc3c(c2)C(=O)N(C2CCC(=O)NC2=O)C3=O)CC1 (stereo not drawn) [TPD5315] | 100 to 500 nM | > 85% | 100 to 500 nM
4 | COc1cc2c(Oc3ccc(NC(=O)C4(C(=O)Nc5ccc(F)cc5)CC4)cc3)ccnc2cc1COCCN1CCN(CCNc2cccc3c2C(=O)N(C2CCC(=O)NC2=O)C3=O)CC1 (stereo not drawn) [TPD5316] | 500 to 1000 nM | 75 to 85% | 500 to 1000 nM
5 | COc1cc2c(Oc3ccc(NC(=O)C4(C(=O)Nc5ccc(F)cc5)CC4)cc3)ccnc2cc1COCCN1CCN(C(=O)CNc2cccc3c2C(=O)N(C2CCC(=O)NC2=O)C3=O)CC1 (stereo not drawn) [TPD5317] | 100 to 500 nM | 65 to 75% | 100 to 500 nM
6 | COc1cc2c(Oc3ccc(NC(=O)C4(C(=O)Nc5ccc(F)cc5)CC4)cc3)ccnc2cc1N1CCC(CN2CCC(C(=O)N[C@H](C(=O)N3C[C@H](O)C[C@H]3C(=O)NCc3ccc(-c4scnc4C)cc3)C(C)(C)C)CC2)CC1 [TPD5402b] | ≤ 100 nM | 65 to 75% | ≤ 100 nM
7 | COc1cc2c(Oc3ccc(NC(=O)C4(C(=O)Nc5ccc(F)cc5)CC4)cc3)ccnc2cc1N1CCC(CN2CCC(OCC(=O)N[C@H](C(=O)N3C[C@H](O)C[C@H]3C(=O)NCc3ccc(-c4scnc4C)cc3)C(C)(C)C)CC2)CC1 [TPD5407] | 100 to 500 nM | 75 to 85% | 500 to 1000 nM
8 | COc1cc2c(Oc3ccc(NC(=O)C4(C(=O)Nc5ccc(F)cc5)CC4)cc3)ccnc2cc1N1CCC(C(=O)N[C@H](C(=O)N2C[C@H](O)C[C@H]2C(=O)NCc2ccc(-c3scnc3C)cc2)C(C)(C)C)CC1 [TPD5409] | 100 to 500 nM | 65 to 75% | 100 to 500 nM
9 | COc1cc2c(Oc3ccc(NC(=O)C4(C(=O)Nc5ccc(F)cc5)CC4)cc3)ccnc2cc1N1CCC(CC(=O)N[C@H](C(=O)N2C[C@H](O)C[C@H]2C(=O)NCc2ccc(-c3scnc3C)cc2)C(C)(C)C)CC1 [TPD5410] | ≤ 100 nM | 65 to 75% | ≤ 100 nM
10 | COc1cc2c(Oc3ccc(NC(=O)C4(C(=O)Nc5ccc(F)cc5)CC4)cc3)ccnc2cc1N1CCC(OCC(=O)N[C@H](C(=O)N2C[C@H](O)C[C@H]2C(=O)NCc2ccc(-c3scnc3C)cc2)C(C)(C)C)CC1 [TPD5411] | 100 to 500 nM | 75 to 85% | 100 to 500 nM
11 | COc1cc2c(Oc3ccc(NC(=O)C4(C(=O)Nc5ccc(F)cc5)CC4)cc3)ccnc2cc1N1CCC(OCCC(=O)N[C@H](C(=O)N2C[C@H](O)C[C@H]2C(=O)NCc2ccc(-c3scnc3C)cc2)C(C)(C)C)CC1 [TPD5412] | 100 to 500 nM | 65 to 75% | 100 to 500 nM
12 | COc1cc2c(Oc3ccc(NC(=O)C4(C(=O)Nc5ccc(F)cc5)CC4)cc3)ccnc2cc1NCCC(=O)N[C@H](C(=O)N1C[C@H](O)C[C@H]1C(=O)NCc1ccc(-c2scnc2C)cc1)C(C)(C)C [TPD5415] | 100 to 500 nM | 65 to 75% | 100 to 500 nM
13 | COc1cc2c(Oc3ccc(NC(=O)C4(C(=O)Nc5ccc(F)cc5)CC4)cc3)ccnc2cc1NCC(=O)N[C@H](C(=O)N1C[C@H](O)C[C@H]1C(=O)NCc1ccc(-c2scnc2C)cc1)C(C)(C)C [TPD5417] | 500 to 1000 nM | 65 to 75% | 1000 to 3000 nM
14 | COc1cc2c(Oc3ccc(NC(=O)C4(C(=O)Nc5ccc(F)cc5)CC4)cc3)ccnc2cc1N1CCC(N2CCC(C(=O)N[C@H](C(=O)N3C[C@H](O)C[C@H]3C(=O)NCc3ccc(-c4scnc4C)cc3)C(C)(C)C)CC2)CC1 [TPD5420] | 1000 to 3000 nM | 65 to 75% | 500 to 1000 nM
15 | COc1cc2c(Oc3ccc(NC(=O)C4(C(=O)Nc5ccc(F)cc5)CC4)cc3)ccnc2cc1N1CCC(CN2CCC(C(=O)N3C[C@H](O)C[C@H]3C(=O)NCc3ccc(-c4scnc4C)cc3)CC2)CC1 [TPD5421] | 100 to 500 nM | 75 to 85% | 100 to 500 nM
16 | COc1cc2c(Oc3ccc(NC(=O)C4(C(=O)Nc5ccc(F)cc5)CC4)cc3)ccnc2cc1N1CCC(NC(=O)C2(C(=O)N[C@H](C(=O)N3C[C@H](O)C[C@H]3C(=O)NCc3ccc(-c4scnc4C)cc3)C(C)(C)C)CC2)CC1 [TPD5424] | 1000 to 3000 nM | 65 to 75% | 500 to 1000 nM
17 | COc1cc2c(Oc3ccc(NC(=O)C4(C(=O)Nc5ccc(F)cc5)CC4)cc3)ccnc2cc1N1CCC(CN2CC(C(=O)N3C[C@H](O)C[C@H]3C(=O)NCc3ccc(-c4scnc4C)cc3)C2)CC1 [TPD5430] | 1000 to 3000 nM | 65 to 75% | 1000 to 3000 nM
18 | COc1cc2c(Oc3ccc(NC(=O)C4(C(=O)Nc5ccc(F)cc5)CC4)cc3)ccnc2cc1N1CCC(CN2CC(N[C@H](C(=O)N3C[C@H](O)C[C@H]3C(=O)NCc3ccc(-c4scnc4C)cc3)C(C)(C)C)C2)CC1 [TPD5431] | 1000 to 3000 nM | 65 to 75% | 1000 to 3000 nM
19 | COc1cc2c(Oc3ccc(NC(=O)C4(C(=O)Nc5ccc(F)cc5)CC4)cc3)ccnc2cc1N1CCC(N2CC(C(=O)N[C@H](C(=O)N3C[C@H](O)C[C@H]3C(=O)NCc3ccc(-c4scnc4C)cc3)C(C)(C)C)C2)CC1 [TPD5432] | 100 to 500 nM | 75 to 85% | ≤ 100 nM
